Results as given in patent publication US20140363383A1, “AEROSOL FORMULATION FOR COPD” (Chiesi Farmaceutici S.p.A, priority 2009, published 2014).

Test: Compatibility with other active ingredients, especially formoterol
Assay type: physicochemical
Conditions: versus glycopyrronium bromide

## C[N+]1(C)CCC(OC(=O)C(O)(c2ccccc2)C2CCCC2)C1.[Cl-] (stereo not shown) [glycopyrronium chloride, 3-[(cyclopentylhydroxyphenylacetyl)oxy]-1,1-dimethylpyrrolidinium chloride]
  compatibility with other active ingredients: better compatibility with other active ingredients
